Test results as given in patent US20030095982A1, “Fraction of Cordyceps sinensis and method of isolation thereof” (priority 2001, published 2003).

Tests used:
[1] = Ames test; assay type: cell-based
Experimental: B: Compound F8: This refers to F8 (for spectroscopic and structural data, see FIG. 2a, 2b, and 3). The molecular formula of compound F8 is C28H46O3. To confirm the potential applicability of the above fractions and to check for obvious toxicity or mutagenicity, Ames test and acute toxicity test were conducted on white mice (ICR-mice) using the F4 fraction or compound F8.

[2] = tested on: IFNγ (Th-1 related), IL-4, IL-5, IL-10 (Th-2 related) and iNOS mRNA; experiment: Cytokine and iNOS mRNA in lung tissue by RT-PCR; assay type: in vivo, brown Norway rats (BNR); conditions: prophylactic and therapeutic treatment, OA asthma model
Experimental: The in vivo role of F-4 and F8 of Th1/Th2 cytokines by […] mRNA in lung tissue and nuclear factor (NF)κ B activity using an electromobility shift assay (EMSA)
Total RNA was extracted from lung tissue samples by a method described previously and RT-PCR was performed using a RT-PCR kit (Clontech, USA). The following T-cell related cytokines were evaluated by measuring their mRNA expression: IFNγ (Th-1 related) and IL-4, IL-5 and IL-10 (all Th-2 related) and inducible nitric oxide synthase (iNOS).
Briefly, 2 μg of RNA in a 25 μl volume was first primed with 2 μl oligo-(dT)18 primer, 20 μM, at 70° C. for 2 min and then kept on ice for 5 min. after the reaction, a mixture containing the following: 8 μl of 5×reaction buffer; 2 μl, dNTP mix […] (each); 1 μl recombinant Rnase inhibitor, 40 units/μ1; and 2 μl MMLV reverse transcriptase, 200 units/μ1, was added to synthesize cDNA. cDNA was amplified by 40 PCR cycles; each consisting of a denaturation step (94° C. for 1 min), an annealing step (65˜55° C. for 1 min, 0.5° C./cycle touch down, 55° C. for 19 cycles), and an extension step (72° C. for 1 min). During the last cycle the 72° C. step was extended to 5 min. The PCR product was analyzed on 2% agarose gel electrophoresis. The identity of each cytokine cDNA was determined by the size of the PCR product obtained by electrophoresis, and confirmed by DNA sequencing of the PCR products. […]

[3] = tested on: ovalbumin (OA) induced bronchial hyperresponsiveness; experiment: Pulmonary function test, OA sensitized and challenged BALBc mice; assay type: in vivo
Experimental: In the nonanesthetized condition, 24 hours after airway challenge by 3 mL 1% OA aerosol, pulmonary function testing (PET) was measured by WBP at baseline and after methacholine (Mch) inhalation challenge. Four hours after PET in a nonanesthetized condition, all animals were anesthetized with sodium pentobarbitone (50 mg/kg intraperitoneally). Jugular vein cannulation (PE-10 polyethylene tube filled with heaprin, 1000 iu/mL in normal saline) and tracheostomy were performed. The animals were put in a body box (anesthetized small animal body box, Buxco, USA) in a supine position. Gallamine triethiodide (4 mg/kg) was injected intravenously to induce paralysis and inhibit spontaneous breathing. A small animal ventilator set at a tidal volume 6 mL/kg and a respiratory rate of 120 times/minute was used to ventilate the animals by room air. All animals were stable without spontaneous breathing 5 minutes after gallamine was given. Pulmonary function tests, including flow volume loop, peak airway opening pressure (PaO), and gas flow to calculate total dynamic lung compliance, were examined at baseline. Thereafter, 25, 50, 75 and 100 μg/kg of acetylcholine were given intravenously at 30 minute intervals. Pulmonary function test were done 5 seconds after each dose of acetylcholine. Before each dose of acetylcholine the flow volume loop returned to baseline.
The PaO was measured by a Gould pressure transducer at the tracheostomy. PaO was defined as opening airway pressure during tidal breathing when a small animal ventilator was used (tidal volume 6 mL/kg, respiratory rate 120 times/minute). Respiratory flow was measured by a DP-45-14 differential pressure transducer.
For the maximal forced expiratory maneuver (MFEM), the lungs were inflated to total lung capacity (TLC, lung volume at PaO =35 cm H2O) 3 times; the inflation was regulated by a solenoid valve. At peak volume during the third inflation, the inflation valve was shut off and the other solenoid valve was used immediately for deflation. The deflation valve was connected to a 20 liter container with a pressure of −40 cm H2O (subatmospheric). The negative pressure produced maximal expiratory flow (Vmax). The changes in flow, volume and PaO were recorded by a 7P1, 7P10 preamplifier (Grass instrument Company, USA) from the body box and flow volume was stored in an oscilloscope (Hitachi Den Shi America Ltd, New York, USA). The parameters of the flow volume loop (FV loop), including peak flow (the maximal flow rate of the FV loop), MFEF75% (the flow rate at 75% TLC), MFEF50% (the flow rate at 50% TLC) and MFEF25% (the flow rate at 25% TLC) were recorded.
PD20MFEF50%Ach is the dose of acetylcholine required to produce a decrease in MFEF50% of 20% from baseline. PD20MFEF25%Ach is the dose required to produce a decrease in MFEF25% of 20% from baseline. PD50PaOAch is the dose required to produce an increase in PaO of 50% from baseline. PD50CdynAch is the dose required to produce a decrease in Cdyn of 50% from baseline. PD50RawAch is the dose required to produce an increase in Raw of 50% from baseline after acetylcholine was given.
TLC and residual volume (RV) were defined as the gas volume in the lungs at airway pressures of +30 cm H2O (TLC) and −10 cm H2O (RV) respectively. The lungs were deflated to RV by connecting one port of the respiratory valve to a 4-liter reservoir at −10 cm H2O; the valve was then turned, and the lungs were inflated from a syringe to TLC. The volume necessary to inflate the lungs from −10 to 30 cm H2O was read from the syringe and was recorded as the vital capacity (VC). A specific measurement sequence was used throughout the study. VC was determined three times and then TLC was measured three times each. The average valve of the three measurements was reported.
Lung volumes (such as TLC and FRC) were also measured using the gas (Neon) dilution principle. […]

[4] = BALBc mice, baseline, 4 mg/Kg intraperitoneally 30 minutes before OA inhalation provocation, mean±SD

## CC(C)[C@@H](C)C=C[C@@H](C)[C@H]1CC[C@H]2C3=C[C@@H](O)[C@@]4(O)C[C@@H](O)CC[C@]4(C)[C@H]3CC[C@]12C [F8, (24R)-ergosta-7,22-diene-3β, 5α, 6β,-triol]
[1]
  mutagenicity (Ames test): no obvious evidence of toxicity or mutagenic properties
[2]
  Th1 cytokines expression: enhance Th1 cytokines expression
  Th2 cytokines and iNOS gene mRNA expression: decrease Th2 cytokines and INOS gene mRNA expression
[3]; BALB/c mice, pretreated before OA inhalation provocation (group I) vs OA-treated (group II), Ach doses higher than 25 μg/kg
  percentage of baseline MFEF 50% TLC, Ach dose response: group II was significantly lower then group I
[3]; [4]
  Cdyn (total dynamic lung compliance): 0.42 ± 0.04 mL/cmH2O
  FEV 0.1: 1.26 ± 0.17 mL
  MFEF 25%: 6.06 ± 1.59 mL/s
  MFEF 50%: 14.58 ± 1.31 mL/s
  MFEF 75%: 19.94 ± 2.53 mL/s
  PaO (airway opening pressure at tidal breathing): 3.8 ± 0.5 cmH2O
  Peak flow: 22.64 ± 2.07 mL/s
  TLC: 1.68 ± 0.25 mL
  Vital capacity: 1.29 ± 0.11 mL
[3]; mice, treatment study (administered after OA challenge), p<0.05
  baseline flow volume loop parameters (MFEF 50%TLC, MFEF 25%TLC, Cdyn) versus group II: lower in group II when compared with group I and III
